The data set can be described thus: Biodistribution and biodegradation after i.v. application (HPLC of MTO, SQUID/MRX of iron oxide). Format: in vivo, New Zealand White Rabbits. The note with it: for concentration at 24 h: New Zealand White, rabbit, iv, regular systemic dose of pure MTO (10 mg MTO/m2 body surface), n=6, HPLC. The procedure: For the animal experiments New Zealand White Rabbits were used. The animals, weighing about 4.5 - 5.2 kg, were treated (i.v.) with ferrofluid bound MTO containing a drug amount of 10% compared to the regular systemic dose which requires 10 mg MTO/m2 body surface (n=5). The other study group (n=6) received the regular systemic dose of pure MTO. After 24h hours the animals were sacrificed and the organs harvested. Complete organs of liver and kidneys were processed and MTO was extracted for HPLC-analysis. Tissue homogenates have also been measured by SQUID.

Where two headings read alike, the source gives them in different places.

Turning to `O=C1c2c(O)ccc(O)c2C(=O)c2c(NCCNCCO)ccc(NCCNCCO)c21` [pure MTO, mitoxantron], the concentration at 24 h runs as follows: (kidney, read-out: MTO concentration in kidneys) 8500 ng/g; (liver, read-out: MTO concentration in liver tissue) 190 ng/g. For the same molecule, the “MTO enrichment in kidneys relative to liver” value (pure i.v. injection of MTO, regular systemic dose, 24h) worked out at 44 fold.

Values taken from patent EP2508171B1, “Pharmaceutical magnetic nano-particle composition” (Universitätsklinikum Erlangen, priority 2011, dated 2012).
